Assays:
[1] = test system: systolic arterial pressure; assay: Blood pressure in Sprague-Dowley rats; type: in vivo; conditions: for systolic arterial pressure after acute treatment, in words: Sprague-Dowley rats, FIG. 10
Protocol: These reductions were of an acute form (at 2 hours of treatment, 19±6 mmHg, P<0.01, n=6) and of a chronic form (1 week, 26±7 mmHg, P<0.001, n=6).
Lower doses of this molecule (1-10 mg/kg) produced similar effects, but less marked. *P<0.01.

[2] = Temperature of transition from lamellar to hexagonal structure (HII) of DEPE membranes, X-ray diffraction/scattering; conditions: for TH, lamellar-hexagonal transition of DEPE: phospholipid:analog 20:1 mol:mol, Table 2, control 61
Protocol: The control value (in the absence of 2-hydroxyoleic) is 63° C. […] This important modification of the cell membrane has important consequences for molecular and cellular function. All the analogs of 2-hydroxyoleic tested that have therapeutic activity also induce effects on the membrane structure (Table 2).
Using this technique, we established that the structure of the membrane is altered by 2-hydroxyoleic acid and its analogs. The lowering of the temperature of transition from lamellar to hexagonal structure indicates an important effect on rearrangement of the lipid molecules in the membrane. This regulation of rearrangement forms the basis of the effect exerted by 2-hydroxyoleic acid and its analogs.

[3] = test system: human leukemia cells (Jurkat); assay: Flow cytometry, number of live Jurkat cells; type: cell-based
From the text: (§1) Similar effects were produced by all the analogs tested that comply with the general structural formula given earlier. […] This antiproliferative effect was also observed using other techniques and other cell types: in rat primary astrocytes, these fatty acids have an antiproliferative effect, which I studied by incorporating tritiated thymidine. Moreover, hydroxyoleic acid and its analogs are able to induce apoptosis or programmed cell death in human cancer cells. […] Using flow cytometry experiments, it was established that in the presence of 2-hydroxyoleic acid the number of live human leukemia cells (Jurkat) was only 10% of those that remained alive with Etoposide, a known antitumor agent.

[4] = test system: human leukemia cells (Jurkat); assay: Degradation of poly-ADP ribose polymerase (PARP) in Jurkat cells; type: cell-based; conditions: Jurkat cells, 10, 100 and 1000 μM, FIG. 3C
From the text: as §1
Protein p21 inhibits the cell cycle, so it is an antiproliferative protein. […] The decrease in levels of this enzyme, or evidence of its degradation, indicate the start of apoptosis or programmed cell death. In these experiments Etoposide was used as the positive control, as this molecule is known to be an inducer of apoptosis and an antitumor agent.

[5] = Body weight of rats in chronic treatment; type: in vivo; conditions: seventh day, Sprague-Dowley rat aged 2-3 months
From the text: Rats treated with these molecules lost body weight during chronic treatments (from 5 to 17 days). In these experiments, rats treated with 2-hydroxyoleic acid or its analogs, in particular aminoleic acid, had free access to food and water, in the same way as the control group of treated rats (FIG. 11). In these conditions there was a progressive decrease in the rats' body weight starting from the first day of treatment, up to 17 grams on the seventh day of treatment (5% of the normal body weight of a Sprague-Dowley rat aged 2-3 months). […] Similar experiments carried out on adult mice, for periods of up to 28 days with 2-hydroxyoleic acid, show reductions in body weight from 15% to 25%, relative to control mice (treated with vehicle).
The animals (Sprague-Dowley rats) had free access to food and water at any time.

[6] = test system: Jurkat cells of human leukemia; assay: Proliferation (cell density) of Jurkat tumor cells in culture; type: cell-based; conditions: FIG. 4B
From the text: (§2) The presence of 2-hydroxyoleic acid and/or its analogs in the cells induces activation of the signal pathway associated with p53, which induces the start of apoptosis or stopping of the cell cycle in various types of tumor cells. With the aim of carrying out the first objective of the present invention, in vitro and in vivo models were used.

[7] = test system: human lung cancer cells A549; assay: Proliferation (cell density) of A549 tumor cells in culture; type: cell-based; conditions: FIG. 4A
From the text: as §2

[8] = test system: systolic arterial pressure; assay: Blood pressure in humans; type: in vivo; conditions: 30 mg/kg, FIG. 9b
From the text: The days prior to treatment are shown with negative values. *P<0.05, **P<0.01.

G-proteins = assay: Binding of [35S]GTPγS to membranes of NIH 3T3 cells transfected with the rat adrenoceptor α2A/D (activity of G-proteins); type: biochemical
From the text: Hydroxyoleic acid and related compounds are capable of modulating the activity of G-proteins, measured by the binding of [^35S] GTPγS (FIG. 5).
The analogs of 2-hydroxyoleic produce an effect similar to that of 2-hydroxyoleic acid.

purified G-proteins = assay: Activity of purified G-proteins in the absence of membrane; type: biochemical
From the text: (§3) This is because these molecules have an influence on the interaction of G-proteins with membranes and therefore on their cellular localization, as is shown in the photographs from confocal microscopy (FIG. 2). The effect of hydroxyoleic acid and its analogs on the localization and activity of G-proteins is not due to a direct interaction on them.
FIG. 6: Hydroxyoleic acid and its analogs had no effect on pure G-proteins (in the absence of membrane).

[9] = test system: cerebral tumor metastases, formed from a lung adenocarcinoma; assay: Brain metastases of lung adenocarcinoma in a patient; type: in vivo, human; conditions: previous chemotherapy and radiotherapy without effect
From the text: The antitumor efficacy of 2-hydroxyoleic acid and its […] is shown in FIG. 8, in which we can see the disappearance of some cerebral tumor metastases, formed from a lung adenocarcinoma, after treatment with 2-hydroxyoleic acid.
Regulation of the Activity of G-Proteins Controls Blood Pressure.
The image on the left (8a) corresponds to the tumors before treatment and those on the right (8b, 8c and 8d) correspond to the tumors after treatment with 2-hydroxyoleic on various dates.

Gαi2 protein = assay: Cellular localization of fluorescein-labeled Gαi2 protein, confocal microscopy; type: cell-based; conditions: primary astrocytes of rat brain, FIG. 2
From the text: as §3
(§4) In this way, inhibition of cell proliferation is achieved, as was confirmed by the appreciable and significant increases in the levels of the protein p21 and the decreases in the cell cycle proteins cdk2 and cyclins B and D3 (FIGS. 3A and B). Moreover, it has been observed that in cells in culture, 2-hydroxyoleic acid and its analogs induce significant increases in protein kinase C (increase of between 40% and 120%).
In control cells, the labeling indicates the presence of this protein throughout the cell, especially in the nucleus (arrow).

heart rate = assay: Heart rate during hypotensive treatment; type: in vivo; conditions: FIGS. 9a, 9b and 10
Protocol: The hypotensive effect produced by 2-hydroxyoleic acid and its analogs is that it induces a reduction in blood pressure of an acute form (which is evident from 2 hours of treatment) and chronic (which is maintained for days and weeks while the treatment is maintained). Aminoleic acid, for example, reduces blood pressure by 15 mmHg in chronic treatments lasting a week. These fatty acids regulate communication between receptor, G-protein and effector. The result is a modulation of the signals of cyclic AMP, phospholipase C and nitric oxide, which gives rise to a reduction in blood pressure. This effect is also connected with regulation of the membrane structure. […] An additional advantage of these compounds is that they control other cardiovascular risk factors: the serum lipid/lipoprotein profile and body weight (see below).

[10] = test system: human lung cancer cells A549; assay: Cell cycle proteins (cdk2, cyclin B, cyclin D3, p21) in A549 cells; type: cell-based
From the text: as §4, §1
Protein p21 inhibits the cell cycle, so it is an antiproliferative protein. […] The decrease in levels of this enzyme, or evidence of its degradation, indicate the start of apoptosis or programmed cell death. […]

CCCCCC/C=C\CCCCCCCCCC(=O)O [cis-Vaccenic acid, cis-vaccenic (cis-11-octadecenoic)acid]
systolic arterial pressure after acute treatment, in words [1]: significant decreases
TH, lamellar-hexagonal transition of DEPE [2]: 53 °C

CCCCCCCC/C=C\CCCCCCC(O)C(=O)O (stereo not drawn) [2-hydroxyoleic acid, cis-2-hydroxy-9-octadecenoic acid]
number of live Jurkat cells relative to those that remained alive with Etoposide [3]: 10%
poly-ADP ribose polymerase (PARP) levels [4]: degradation
decrease in body weight as share of normal body weight [5]: 5%
effect on proliferation of Jurkat cells [6]: induce stoppage of division and the death of tumor cells
effect on proliferation of A549 cells [7]: induce stoppage of division and the death of tumor cells
blood pressure in humans, in words [8]: significant, large decreases
function of the G-proteins ([35S]GTPγS binding), in words (G-proteins; FIG. 5): decrease in function of the G-proteins even greater than the anthracycline daunomycin
influence on the activity of purified G-proteins (purified G-proteins; FIG. 6, listed as Hydroxyoleic acid): no effect
influence on the activity of purified G-proteins (purified G-proteins; FIG. 6, listed as hydroxyoleic): did not have an influence
effect on brain tumors (metastases) in a patient ([9]; FIG. 8): complete disappearance of the cancer
effect on brain tumors (metastases) in a patient ([9]; FIG. 8, listed as 2-hydroxyoleic): one of the tumors disappeared more quickly and the other one more slowly
systolic arterial pressure after acute treatment, in words [1]: significant decreases
blood pressure at lower doses, in words ([1]; acute and chronic treatments from 1 mg/kg to 10 mg/kg): significant reductions
reduction of blood pressure, chronic ([1]; rats, 1 week, 3 daily injections of 30 mg/kg): 26±7 mmHg
reduction of blood pressure, acute ([1]; rats, at 2 hours of treatment, 30 mg/kg): 19±6 mmHg
cellular localization of Gαi2 protein (Gαi2 protein): in membrane and cytosol, but not in the nucleus
effect on heart rate (heart rate): without altering the heart rate
cell cycle proteins cdk2, cyclin B and cyclin D3 ([10]; FIG. 3A): decrease
p21 protein ([10]; incubation for 24 and 48 hours, FIG. 3B): large increases
TH, temperature of transition from lamellar to hexagonal structure ([2]; DEPE:2OHOA 10:1 mol:mol): 41 °C
TH, temperature of transition from lamellar to hexagonal structure ([2]; DEPE:2OHOA 20:1 mol:mol): 48 °C
TH, temperature of transition from lamellar to hexagonal structure ([2]; DEPE:2OHOA 40:1 mol:mol): 54 °C

CCCCCCCC/C=C\CCCCCCCCCCCCCC(=O)O [Nervonic acid, nervonic (cis-15-tetracosenoic)acid]
effect on proliferation of Jurkat cells [6]: induce stoppage of division and the death of tumor cells
effect on proliferation of A549 cells [7]: induce stoppage of division and the death of tumor cells
systolic arterial pressure after acute treatment, in words [1]: significant decreases
TH, lamellar-hexagonal transition of DEPE [2]: 55 °C

CCCCCCCC/C=C\CCCCCCC(C)C(=O)O (stereo not drawn) [Methyloleic acid, 2-methyl-oleic (2-methyl-cis-9-octadecenoic)acid]
effect on proliferation of Jurkat cells [6]: induce stoppage of division and the death of tumor cells
effect on proliferation of A549 cells [7]: induce stoppage of division and the death of tumor cells
systolic arterial pressure after acute treatment, in words [1]: significant decreases
TH, lamellar-hexagonal transition of DEPE [2]: 50 °C

CCCCCCCC/C=C\CCCCCCC(N)C(=O)O (stereo not drawn) [Aminoleic acid, 2-amino-oleic (2-amino-cis-9-octadecenoic)acid]
decrease in body weight as share of normal body weight [5]: 5%
effect on proliferation of Jurkat cells [6]: induce stoppage of division and the death of tumor cells
effect on proliferation of A549 cells [7]: induce stoppage of division and the death of tumor cells
reduction of blood pressure, chronic treatments lasting a week ([1]; species not printed at the place): 15 mmHg
TH, lamellar-hexagonal transition of DEPE [2]: 49 °C

CCCCCC/C=C\CCCCCCCC(=O)O [palmitoleic acid, palmitoleic (cis-9-hexadecenoic)acid]
effect on proliferation of Jurkat cells [6]: induce stoppage of division and the death of tumor cells
effect on proliferation of A549 cells [7]: induce stoppage of division and the death of tumor cells
systolic arterial pressure after acute treatment, in words [1]: significant decreases

COc1cccc2c1C(=O)c1c(O)c3c(c(O)c1C2=O)C[C@@](O)(C(C)=O)C[C@@H]3O[C@H]1C[C@H](N)[C@H](O)[C@H](C)O1 [daunomycin, reference compound]
inhibition in the activity of G-proteins (G-proteins; 200 μM, membranes of NIH 3T3 cells): 46%
influence on the activity of purified G-proteins (purified G-proteins; FIG. 6): did not have an influence
influence on the activity of purified G-proteins (purified G-proteins; FIG. 6, listed as Daunomycin): behavior similar to the control

CCCCCCCC/C=C\CCCCCCCC(=O)O [Oleic acid, oleic (cis-9-octadecenoic)acid]
effect on proliferation of Jurkat cells [6]: induce stoppage of division and the death of tumor cells
effect on proliferation of A549 cells [7]: induce stoppage of division and the death of tumor cells
effect on brain tumors (metastases) in a patient ([9]; FIG. 8): complete disappearance of the cancer
systolic arterial pressure after acute treatment, in words [1]: significant decreases
TH, lamellar-hexagonal transition of DEPE [2]: 45 °C

— patent US8778995B2, “Use of hydroxyoleic acid and related compounds in the manufacture of drugs” (Universitat de les Illies Balears, priority 2001, dated 2014)
